Test results from ChEMBL document CHEMBL2010718, “Human kallikrein 6 inhibitors with a para-amidobenzylanmine P1 group identified through virtual screening” (Bioorg Med Chem Lett, 2012).

Legend:
[1] = molecular target: Kallikrein-1 (Homo sapiens, UniProt P06870); assay: Inhibition of human kallikrein 1
[2] = molecular target: Plasma kallikrein (Homo sapiens, UniProt P03952); assay: Inhibition of plasma kallikrein
[3] = molecular target: T1, Prostate-specific antigen (Homo sapiens, UniProt P07288); assay: Inhibition of human kallikrein 3
T1 sequence (P07288 whole entry): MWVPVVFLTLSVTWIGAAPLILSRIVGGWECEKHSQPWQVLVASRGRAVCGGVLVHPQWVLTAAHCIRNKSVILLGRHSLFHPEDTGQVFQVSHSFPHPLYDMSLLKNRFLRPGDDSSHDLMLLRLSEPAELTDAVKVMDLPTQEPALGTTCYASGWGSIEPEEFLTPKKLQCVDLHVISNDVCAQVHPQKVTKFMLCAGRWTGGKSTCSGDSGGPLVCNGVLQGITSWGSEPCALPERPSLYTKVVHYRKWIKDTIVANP

Kallikrein-1, sequence (P06870 whole entry): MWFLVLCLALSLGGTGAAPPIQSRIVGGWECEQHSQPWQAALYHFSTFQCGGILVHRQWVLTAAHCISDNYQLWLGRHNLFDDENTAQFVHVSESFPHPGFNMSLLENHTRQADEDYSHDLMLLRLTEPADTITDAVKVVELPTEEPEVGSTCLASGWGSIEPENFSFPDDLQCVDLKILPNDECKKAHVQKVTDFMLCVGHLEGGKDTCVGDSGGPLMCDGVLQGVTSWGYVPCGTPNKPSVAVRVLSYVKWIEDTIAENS
Plasma kallikrein, sequence (P03952 20-390 limits assumed): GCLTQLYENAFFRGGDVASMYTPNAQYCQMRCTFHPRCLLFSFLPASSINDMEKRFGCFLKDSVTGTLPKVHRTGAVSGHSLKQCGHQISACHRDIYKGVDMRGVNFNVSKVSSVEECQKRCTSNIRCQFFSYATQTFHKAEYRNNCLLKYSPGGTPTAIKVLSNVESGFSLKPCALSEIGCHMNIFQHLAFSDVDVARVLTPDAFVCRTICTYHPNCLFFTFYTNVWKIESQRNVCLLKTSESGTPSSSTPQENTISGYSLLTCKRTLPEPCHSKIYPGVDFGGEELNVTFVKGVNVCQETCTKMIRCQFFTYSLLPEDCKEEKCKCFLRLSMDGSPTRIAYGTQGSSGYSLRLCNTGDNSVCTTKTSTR
Plasma kallikrein, sequence (P03952 391-638 limits assumed): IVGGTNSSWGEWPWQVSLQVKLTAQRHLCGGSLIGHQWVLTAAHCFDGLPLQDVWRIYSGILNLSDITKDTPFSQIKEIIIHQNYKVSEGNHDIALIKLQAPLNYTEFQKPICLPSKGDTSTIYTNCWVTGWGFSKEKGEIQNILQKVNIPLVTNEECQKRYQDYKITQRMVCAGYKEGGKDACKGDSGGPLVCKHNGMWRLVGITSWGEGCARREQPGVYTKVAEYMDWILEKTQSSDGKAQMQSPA

Compound | Ki [1] [nM] | further results
N=C(N)c1cc(Br)c(OCCCCCOc2c(Br)cc(C(=N)N)cc2Br)c(Br)c1 | 810 | 
N=C(N)c1ccc(OCc2ccc(COc3ccc(C(=N)N)cc3I)cc2)c(I)c1 | 31 | 
NC[C@H]1CC[C@H](C(=O)NC(Cc2ccc(Oc3ncccn3)cc2)C(=O)Nc2cccc(C(=O)O)c2)CC1 (some centres undefined) |  | IC50 [2]: 710 nM
O=C(OCc1ccccc1)c1cccc(OC(=O)N2C(=O)[C@@H](Cc3ccc(O)cc3)[C@H]2C(=O)OCc2ccccc2)c1 |  | IC50 [3]: 226 nM
